Reference: patent US11505533B2, “Metabolically stable N-acylaminooxadiazoles useful as antibacterial agents” (MICROBIOTIX, INC., priority 2017, dated 2022)

How the values were obtained:
CYP2D6 = CYP2D6 (Homo sapiens, UniProt P10635)
hERG potassium channel = hERG potassium channel (Homo sapiens, UniProt Q12809)
hERG potassium channel, sequence (Q12809 whole entry): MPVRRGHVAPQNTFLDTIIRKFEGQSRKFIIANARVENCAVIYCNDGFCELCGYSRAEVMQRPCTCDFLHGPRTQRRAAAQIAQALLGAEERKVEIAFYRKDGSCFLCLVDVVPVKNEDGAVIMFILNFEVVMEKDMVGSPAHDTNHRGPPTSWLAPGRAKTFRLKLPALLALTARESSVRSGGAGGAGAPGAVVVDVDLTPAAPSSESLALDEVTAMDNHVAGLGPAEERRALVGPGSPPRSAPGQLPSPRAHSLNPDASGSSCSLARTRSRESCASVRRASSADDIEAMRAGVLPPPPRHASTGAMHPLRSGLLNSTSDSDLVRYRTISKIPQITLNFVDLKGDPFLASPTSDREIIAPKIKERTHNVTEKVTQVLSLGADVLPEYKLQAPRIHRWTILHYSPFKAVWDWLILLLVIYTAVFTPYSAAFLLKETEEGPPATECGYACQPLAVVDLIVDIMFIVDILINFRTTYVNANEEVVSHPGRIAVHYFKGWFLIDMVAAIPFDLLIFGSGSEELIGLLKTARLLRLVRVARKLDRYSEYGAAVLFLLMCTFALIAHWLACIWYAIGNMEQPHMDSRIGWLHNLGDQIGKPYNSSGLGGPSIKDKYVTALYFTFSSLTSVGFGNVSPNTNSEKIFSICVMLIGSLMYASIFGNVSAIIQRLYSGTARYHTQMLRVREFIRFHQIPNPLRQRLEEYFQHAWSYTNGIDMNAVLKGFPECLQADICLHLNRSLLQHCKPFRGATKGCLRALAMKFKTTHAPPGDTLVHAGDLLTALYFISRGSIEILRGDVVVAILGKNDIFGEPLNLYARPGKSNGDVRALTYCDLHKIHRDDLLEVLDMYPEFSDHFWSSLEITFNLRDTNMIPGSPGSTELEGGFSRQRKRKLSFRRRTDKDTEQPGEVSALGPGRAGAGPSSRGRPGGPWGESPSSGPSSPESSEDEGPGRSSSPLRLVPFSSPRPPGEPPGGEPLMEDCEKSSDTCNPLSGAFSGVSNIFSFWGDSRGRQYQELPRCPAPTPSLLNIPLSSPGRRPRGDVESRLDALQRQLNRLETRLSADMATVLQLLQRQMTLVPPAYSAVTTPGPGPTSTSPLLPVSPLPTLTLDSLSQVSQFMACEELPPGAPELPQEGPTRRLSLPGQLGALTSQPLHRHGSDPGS

CYP2D6, sequence (P10635 whole entry): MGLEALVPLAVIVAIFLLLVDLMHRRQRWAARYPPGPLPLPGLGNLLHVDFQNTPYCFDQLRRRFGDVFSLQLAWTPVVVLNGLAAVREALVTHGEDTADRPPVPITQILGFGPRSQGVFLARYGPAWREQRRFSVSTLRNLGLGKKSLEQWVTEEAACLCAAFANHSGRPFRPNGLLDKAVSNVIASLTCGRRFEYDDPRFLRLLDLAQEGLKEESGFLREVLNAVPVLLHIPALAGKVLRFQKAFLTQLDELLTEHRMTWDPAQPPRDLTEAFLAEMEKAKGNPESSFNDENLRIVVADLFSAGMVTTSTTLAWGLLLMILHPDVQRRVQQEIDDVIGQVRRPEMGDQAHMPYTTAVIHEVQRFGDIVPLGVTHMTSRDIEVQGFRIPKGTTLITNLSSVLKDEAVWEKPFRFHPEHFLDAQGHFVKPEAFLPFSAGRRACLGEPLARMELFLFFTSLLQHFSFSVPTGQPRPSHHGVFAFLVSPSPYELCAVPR

O=C(Nc1nnc(-c2ccc(F)cc2)o1)c1ccc(Oc2ccccc2)nc1 [MBX-4237]
inhibition at 10 µM (CYP2D6): -4%
inhibition at 10 µM (hERG potassium channel): 8%
